SMILES | melting point
Cc1ccc(-c2c3n(c(=O)c4ncccc24)CCC(C)CN(Cc2cc(C(F)(F)F)cc(C(F)(F)F)c2)C3=O)cc1 (racemic) [Reference Example 70, (+/−)-7-[3,5-Bis(trifluoromethyl)benzyl]-6,7,8,9,10,11-hexahydro-9-methyl-5-(4-methylphenyl)-6,13-dioxo-13H-[1,4]diazocino[2,1-g][1,7]naphthyridine] | 280 to 281 °C
Cc1ccc(-c2c3n(c(=O)c4ncccc24)CCN(Cc2cc(C(F)(F)F)cc(C(F)(F)F)c2)C3=O)cc1 [Reference Example 55, 7-[3,5-Bis(trifluoromethyl)benzyl]-6,7,8,9-tetrahydro-5-(4-methylphenyl)-6,11-dioxo-11H-pyrazino[2,1-g][1,7]naphthyridine] | 270 to 271 °C
O=C1c2c(-c3ccccc3)ccnc2OCCN1Cc1cc(C(F)(F)F)cc(C(F)(F)F)c1 [Reference Example 65, 4-[3,5-Bis(trifluoromethyl)benzyl]-2,3,4,5-tetrahydro-5-oxo-6-phenylpyrido[3,2-f][1,4]oxazepine] | 200 to 201 °C
Cc1ccc(-c2c3n(c(=O)c4ncccc24)CC[C@@H](C)CN(Cc2cc(C(F)(F)F)cc(C(F)(F)F)c2)C3=O)cc1 [Reference Example 72, (9R)-7-[3,5-Bis(trifluoromethyl)benzyl]-6,7,8,9,10,11-hexahydro-9-methyl-5-(4-methylphenyl)-6,13-dioxo-13H-[1,4]diazocino[2,1-g][1,7]naphthyridine] | 226 to 228 °C
C[C@H]1CCn2c(c(-c3ccccc3)c3cccnc3c2=O)C(=O)N(Cc2cc(C(F)(F)F)cc(C(F)(F)F)c2)C1 [Reference Example 73, (9S)-7-[3,5-Bis(trifluoromethyl)benzyl]-6,7,8,9,10,11-hexahydro-9-methyl-6,13-dioxo-5-phenyl-13H-[1,4]diazocino[2,1-g] [1,7]naphthyridine] | 242 to 244 °C
Cc1ccc(-c2c3n(c(=O)c4ncccc24)CC[C@H](C)CN(Cc2cc(C(F)(F)F)cc(C(F)(F)F)c2)C3=O)cc1 [Reference Example 74, (9S)-7-[3,5-Bis(trifluoromethyl)benzyl]-6,7,8,9,10,11-hexahydro-9-methyl-5-(4-methylphenyl)-6,13-dioxo-13H-[1,4]diazocino[2,1-g][1,7]naphthyridine] | 227 to 228 °C
O=C1c2c(-c3ccccc3)ccnc2NCCN1Cc1cc(C(F)(F)F)cc(C(F)(F)F)c1 [Reference Example 75, 4-[3,5-Bis(trifluoromethyl)benzyl]-2,3,4,5-tetrahydro-5-oxo-6-phenyl-1H-pyrido[2,3-e][1,4]diazepine] | 242 to 243 °C
Cc1cnc2c(c1-c1ccccc1)C(=O)N(Cc1cc(C(F)(F)F)cc(C(F)(F)F)c1)C[C@@H](C)CO2 [Reference Example 86, (R)-5-[3,5-Bis(trifluoromethyl)benzyl]-2,3,4,5-tetrahydro-3,8-dimethyl-6-oxo-7-phenyl-6H-pyrido[2,3-b][1,5]oxazocine] | 147 to 149 °C
Cc1cc(-c2ccccc2)c2c(n1)OCCCN(Cc1cc(C(F)(F)F)cc(C(F)(F)F)c1)C2=O [Reference Example 88, 5-[3,5-Bis(trifluoromethyl)benzyl]-2,3,4,5-tetrahydro-9-methyl-6-oxo-7-phenyl-6H-pyrido[2,3-b][1,5]oxazocine] | 164 to 165 °C
CSCc1cc(-c2ccccc2)c2c(n1)OCCN(Cc1cc(C(F)(F)F)cc(C(F)(F)F)c1)C2=O [Reference Example 96, 4-[3,5-Bis(trifluoromethyl)benzyl]-2,3,4,5-tetrahydro-8-methylthiomethyl-5-oxo-6-phenylpyrido[3,2-f][1,4]oxazepine] | 165 to 166 °C
NCc1cc(-c2ccccc2)c2c(n1)OCCN(Cc1cc(C(F)(F)F)cc(C(F)(F)F)c1)C2=O [Reference Example 97, 8-Aminomethyl-4-[3,5-bis(trifluoromethyl)benzyl]-2,3,4,5-tetrahydro-5-oxo-6-phenylpyrido[3,2-f][1,4]oxazepine] | 188 to 191 °C
CNCc1cc(-c2ccccc2)c2c(n1)OCCN(Cc1cc(C(F)(F)F)cc(C(F)(F)F)c1)C2=O [Reference Example 98, 4-[3,5-Bis(trifluoromethyl)benzyl]-2,3,4,5-tetrahydro-8-methylaminomethyl-5-oxo-6-phenylpyrido[3,2-f][1,4]oxazepine] | 152 to 154 °C
CC(=O)NCc1cc(-c2ccccc2)c2c(n1)OCCN(Cc1cc(C(F)(F)F)cc(C(F)(F)F)c1)C2=O [Reference Example 102, 8-Acetylaminomethyl-4-[3,5-bis(trifluoromethyl)benzyl]-2,3,4,5-tetrahydro-5-oxo-6-phenylpyrido[3,2-f][1,4]oxazepine] | 223 to 224 °C
CS(=O)(=O)NCc1cc(-c2ccccc2)c2c(n1)OCCN(Cc1cc(C(F)(F)F)cc(C(F)(F)F)c1)C2=O [Reference Example 103, 4-[3,5-Bis(trifluoromethyl)benzyl]-2,3,4,5-tetrahydro-8-methanesulfonylaminomethyl-5-oxo-6-phenylpyrido[3,2-f][1,4]oxazepine] | 194 to 195 °C
Cc1cnc2c(c1-c1ccccc1)C(=O)N(Cc1cc(C(F)(F)F)cc(C(F)(F)F)c1)CCN(C)C2=O [Reference Example 104, 6-[3,5-Bis(trifluoromethyl)benzyl]-5,6,7,8,9,10-hexahydro-3,9-dimethyl-5,10-dioxo-4-phenylpyrido[2,3-f][1,4]diazocine] | 203 to 205 °C
CN1CCN(Cc2cc(C(F)(F)F)cc(C(F)(F)F)c2)C(=O)c2c(-c3ccccc3)ccnc2C1=O [Reference Example 105, 6-[3,5-Bis(trifluoromethyl)benzyl]-5,6,7,8,9,10-hexahydro-9-methyl-5,10-dioxo-4-phenylpyrido[2,3-f][1,4]diazocine] | 167 to 169 °C
Cc1cnc2c(c1-c1ccccc1)C(=O)N(Cc1ccccc1)CCN(C)C2=O [Reference Example 106, 6-Benzyl-5,6,7,8,9,10-hexahydro-3,9-dimethyl-5,10-dioxo-4-phenylpyrido[2,3-f][1,4]diazocine] | 183 to 184 °C
CCN1CCN(Cc2cc(C(F)(F)F)cc(C(F)(F)F)c2)C(=O)c2c(ncc(C)c2-c2ccccc2)C1=O [Reference Example 107, 6-[3,5-Bis(trifluoromethyl)benzyl]-9-ethyl-5,6,7,8,9,10-hexahydro-3-methyl-5,10-dioxo-4-phenylpyrido[2,3-f][1,4]diazocine] | 228 to 229 °C
Cc1cnc2c(c1-c1ccccc1)C(=O)N(Cc1cc(C(F)(F)F)cc(C(F)(F)F)c1)CCCN(C)C2=O [Reference Example 108, 6-[3,5-Bis(trifluoromethyl)benzyl]-6,7,8,9,10,11-hexahydro-3,10-dimethyl-5,11-dioxo-4-phenyl-5H-pyrido[2,3-g][1,5]diazonine] | 247 to 249 °C
CNC(=O)c1cc(-c2ccccc2)c2c(n1)OCCN(Cc1cc(C(F)(F)F)cc(C(F)(F)F)c1)C2=O [Reference Example 112, 4-[3,5-Bis(trifluoromethyl)benzyl]-N-methyl-2,3,4,5-tetrahydro-5-oxo-6-phenylpyrido[3,2-f][1,4]oxazepine-8-carboxamide] | 145 °C (dec.)
CN(C)C(=O)c1cc(-c2ccccc2)c2c(n1)OCCN(Cc1cc(C(F)(F)F)cc(C(F)(F)F)c1)C2=O [Reference Example 113, 4-[3,5-Bis(trifluoromethyl)benzyl]-N,N-dimethyl-2,3,4,5-tetrahydro-5-oxo-6-phenylpyrido[3,2-f][1,4]oxazepine-8-carboxamide] | 235 to 236 °C
CCCCNC(=O)c1cc(-c2ccccc2)c2c(n1)OCCN(Cc1cc(C(F)(F)F)cc(C(F)(F)F)c1)C2=O [Reference Example 114, 4-[3,5-Bis(trifluoromethyl)benzyl]-N-n-butyl-2,3,4,5-tetrahydro-5-oxo-6-phenylpyrido[3,2-f][1,4]oxazepine-8-carboxamide] | 194 to 196 °C
O=C(c1cc(-c2ccccc2)c2c(n1)OCCN(Cc1cc(C(F)(F)F)cc(C(F)(F)F)c1)C2=O)N1CCCCC1 [Reference Example 115, 4-[3,5-Bis(trifluoromethyl)benzyl]-2,3,4,5-tetrahydro-5-oxo-6-phenyl-8-piperidinocarbonylpyrido[3,2-f][1,4]oxazepine] | 218 to 220 °C
O=C(c1cc(-c2ccccc2)c2c(n1)OCCN(Cc1cc(C(F)(F)F)cc(C(F)(F)F)c1)C2=O)N1CCOCC1 [Reference Example 116, 4-[3,5-Bis(trifluoromethyl)benzyl]-2,3,4,5-tetrahydro-8-morpholinocarbonyl-5-oxo-6-phenylpyrido[3,2-f][1,4]oxazepine] | 265 to 266 °C
COc1cc(CN2CCOc3nccc(-c4ccccc4)c3C2=O)cc(OC)c1OC [Reference Example 118, 2,3,4,5-Tetrahydro-5-oxo-6-phenyl-4-(3,4,5-trimethoxybenzyl)pyrido[3,2-f][1,4]oxazepine] | 177 to 179 °C
O=C1c2c(-c3ccccc3)ccnc2OCCN1Cc1ccc(Cl)c(Cl)c1 [Reference Example 119, 4-(3,4-Dichlorobenzyl)-2,3,4,5-tetrahydro-5-oxo-6-phenylpyrido[3,2-f][1,4]oxazepine] | 189 to 192 °C
COc1ccc(CN2CCOc3nccc(-c4ccccc4)c3C2=O)cc1OC [Reference Example 120, 4-(3,4-Dimethoxybenzyl)-2,3,4,5-tetrahydro-5-oxo-6-phenylpyrido[3,2-f][1,4]oxazepine] | 175 to 176 °C
O=C1c2c(-c3ccccc3)ccnc2OCCN1Cc1ccccc1 [Reference Example 121, 4-Benzyl-2,3,4,5-tetrahydro-5-oxo-6-phenylpyrido[3,2-f][1,4]oxazepine] | 209 to 211 °C
COc1cc(CN2CCCOc3nccc(-c4ccccc4)c3C2=O)cc(OC)c1OC [Reference Example 122, 2,3,4,5-Tetrahydro-6-oxo-7-phenyl-5-(3,4,5-trimethoxybenzyl)-6H-pyrido[2,3-b][1,5]oxazocine] | 155 to 156 °C
C[C@@H]1COc2nccc(-c3ccccc3)c2C(=O)N(Cc2ccccc2)C1 [Reference Example 123, (S)-5-Benzyl-2,3,4,5-tetrahydro-3-methyl-6-oxo-7-phenyl-6H-pyrido[2,3-b][1,5]oxazocine] | 139 to 141 °C

From patent US20020132817A1, “Heterocyclic compounds, their production and use” (priority 1998, published 2002)
